Source: publication PMC12190436, “5-Ene-2-arylaminothiazol-4(5H)-ones Induce Apoptosis in Breast Cancer Cells” (Cells, 2025)

Key:
T98G = test: MTT cell viability assay; format: cell-based; settings: Homo sapiens
Text: (§1) All of the tested cell lines were acquired from the American Type Culture Collection (ATCC, Manassas, VA, USA), including human breast cancer cell lines (MCF-7, MDA-MB-231), human gastric cancer cell line (AGS), human colorectal cancer cell lines (HT-29, DLD-1), human glioblastoma cancer cell lines (T98G, A172), mouse astrocyte type I clone (C8-D1A), human normal epithelial breast cells (MCF-10A) and primary dermal fibroblast (HDFa). Such cell lines as AGS, MCF-7, MDA-MB-231, A172, T98G, C8-D1A, and primary dermal fibroblast (HDFa) were cultured in complete medium–DMEM (Corning, Kennebunk, ME, USA). RPMI-1640 (ATCC, Manassas, VA, USA) was used for the DLD-1 cell line, and McCoy’s 5A (PAN-Biotech, Aidenbach, Germany) for the HT-29 cell line. To all utilized media additionally was added 10% fetal bovine serum (FBS) (Eurx, Gdansk, Poland) and 1% penicillin and streptomycin solution (Corning, Kennebunk, ME, USA). MCF-10A cells were incubated in MEGM (Mammary Epithelial Cell Growth Medium) BulletKit supplemented with penicillin/streptomycin cocktail and 5% horse serum. All cells were cultured at 37 °C in an atmosphere with 5% CO₂ in tissue culture dishes (Sarstedt, Numbrecht, Germany). For experiments, cells were washed with phosphate-buffered saline (PBS) (Corning, Kennebunk, ME, USA) followed by the addition of 0.05% trypsin with 0.02% EDTA (Corning, Kennebunk, ME, USA). Scepter 3.0 cell counter (Merck Millipore, Burlington, MA, USA) was applied before each seeding to calculate the number of cells. For the next analyses, cells were reseeded in 6-well plates, 24-well plates, and 96-well plates.
(§2) MTT (3-(4,5-dimethylthiazol-2-yl)-2,5-diphenyltetrazolium bromide) assay method was utilized to analyze compound effects on cell viability. All cell lines were seeded in 96-well plates with 1 × 10^4 cells per well. After 24 h, cells were treated with the tested compounds and reference drug at concentrations of 0.1, 1, 2.5, 5, 10, and 20 µM for 24, 48, or 72 h. Next, a solution of 3-(4,5-dimethyl-2-thiazolyl)-2,5-diphenyl-2H-tetrazolium bromide (Sigma-Aldrich, St. Louis, MO, USA) in PBS with a concentration of 5 mg/mL was prepared. After the incubation with tested compounds, 10 µL of the prepared MTT solution was applied to each well, followed by 2 h of incubation at 37 °C. Next, cells underwent lysis by adding 100 µL of pre-prepared lysing buffer (containing 25 mM HCl, 2% acetic acid, 3% DMF, and 5% SDS, with a pH of 4.7). The absorbance was measured using a UV-VIS Helios Gamma (Unicam/ThermoFisher Scientific Inc., Cleveland, OH, USA) at 570 nm wavelength. The cells incubated with vehicle substance (0.1% DMSO) were taken as controls.
(§3) To investigate the cytotoxic potential of the newly synthesized compounds, a comprehensive assessment was conducted utilizing the MTT assay. This assay was applied on a diverse panel of cell lines, such as human breast cancer cell lines (MCF-7 and MDA-MB-231), human gastric cancer cell line (AGS), human colorectal cancer cell lines (HT-29 and DLD-1), human glioblastoma cancer cell lines (T98G and A172), mouse astrocyte type I clone cells (C8-D1A), primary dermal fibroblast (HDFa), and human normal breast cells (MCF-10A) for 24, 48, and/or 72 h.

MCF-7 = test: MTT cell viability assay; format: cell-based; settings: Homo sapiens
Text: as §1, §2, §3

AGS = test: MTT cell viability assay; format: cell-based; settings: Homo sapiens
Text: as §1, §2, §3

MDA-MB-231 = test: MTT cell viability assay; format: cell-based; settings: Homo sapiens
Text: as §1, §2, §3

HT-29 = test: MTT cell viability assay; format: cell-based; settings: Homo sapiens
Text: as §1, §2, §3

A172 = test: MTT cell viability assay; format: cell-based; settings: Homo sapiens
Text: as §1, §2, §3

DLD-1 = test: MTT cell viability assay; format: cell-based; settings: Homo sapiens
Text: as §1, §2, §3

[1] = system: Primary Dermal Fibroblast (HDFa); test: MTT cell viability assay; format: cell-based; settings: Homo sapiens, normal cells
Text: as §1, §2, §3

MCF-7 cells = test: Annexin V-FITC/propidium iodide flow cytometry; format: cell-based, human; settings: 24 h
Protocol: The MCF-7 cells were seeded on 6-well plates (1 × 10^5 cells per well) and incubated for 24 h. Afterwards, the cells were washed, and tested compounds (Les-6416, Les-6418, Les-6381, Les-6423, and Les-6424) were added in a concentration of 5 µM. The reference drug doxorubicin hydrochloride was applied in a concentration of 0.5 µM. The cells were incubated with the compounds for 24 h. Afterwards, the cells were washed several times with cold PBS and the cell suspensions were prepared in the binding buffer from the kit at a concentration of 1 × 10^6 cells/mL. A total of 100 µL of suspension was collected from each sample and transferred to the tubes. After that, 5 µL of Annexin V-FITC and 5 µL of propidium iodide were added. After 15 min of incubation at room temperature in a dark environment, the content of the tubes was filled with binding buffer up to 500 µL and assessed by BD FACSCanto II flow cytometer (Becton Dickinson Biosciences, San Jose, CA, USA). A total of 1 × 10^4 events were measured for each sample. The results were investigated by applying FACSDiva software Version 6.1.3. (BD Biosciences Systems, San Jose, CA, USA).
To assess the effects of novel compounds on apoptosis, we utilized flow cytometry analysis with Annexin V-FITC and Propidium Iodide double staining. In this way, we could distinguish between different cell populations based on their state: unstained or alive cells, cells stained with propidium iodide or necrotic cells, cells only stained with FITC-labeled annexin V or early apoptotic cells, and cells stained with both annexin V and propidium iodide or late apoptotic cells.

IC50 (MCF-7; MCF7, MCF-7 24 h): > 20 µM
IC50 (MCF-7; MCF7, MCF-7 48 h): > 20 µM
IC50 (MCF-7; MCF7, MCF-7 72 h): > 20 µM
IC50 (AGS; AGS 24 h): > 20 µM
IC50 (AGS; AGS 48 h): > 20 µM
IC50 (MDA-MB-231; MDA-MB-231 24 h): > 20 µM
IC50 (MDA-MB-231; MDA-MB-231 48 h): > 20 µM
IC50 (MDA-MB-231; MDA-MB-231 72 h): > 20 µM
IC50 (HT-29; HT-29 24 h): > 20 µM
IC50 (HT-29; HT-29 48 h): > 20 µM
IC50 (DLD-1; DLD-1 24 h): > 20 µM
IC50 (DLD-1; DLD-1 48 h): > 20 µM
Compound: COc1cc(NC2=NC(=O)C(=Cc3ccco3)S2)cc(OC)c1OC [Les-6424, 5-(Furan-2-ylmethylene)-2-((3,4,5-trimethoxyphenyl)amino)thiazol-4(5H)-one]
IC50 (T98G; T98G 24 h): > 20 µM
IC50 (T98G; T98G 48 h): > 20 µM
IC50 (A172; A 172, A172 24 h): > 20 µM
IC50 (A172; A 172, A172 48 h): > 20 µM
IC50 ([1]; HDFa 24 h): > 20 µM
IC50 ([1]; HDFa 48 h): > 20 µM
IC50 ([1]; HDFa 72 h): > 20 µM
proapoptotic effect in comparison to the control (MCF-7 cells; 5 µM): did not have any statistically significant results
viability at 5 µM (MCF-7 cells; Homo sapiens, MCF7, 5 µM, read-out: Viable cells, cell population): 90.4%
